Test [1] has as its system L. monocytogenes ATCC19115. Description: SEM analysis of bacterial agglutination. The test is classed as cell-based, Listeria monocytogenes. The note with it: 3 µM proHD6 treated with trypsin before incubation (trypsin inactivated with APMSF), 30 min, 50 mM Tris-maleate pH 6.4. How it is done: Fig. 3 TEM analysis of HD6 self-assembly and SEM analysis of bacterial agglutination. Top row: transmission electron micrographs of 10 mM sodium phosphate pH 7.4 (control), 0.4 μM trypsin (control), 20 μM proHD6 in the absence and presence of 0.4 μM trypsin, and 20 μM HD6. All the samples were incubated at room temperature for 1 h. Scale bar = 100 nm. TEM images obtained using 10 mM Tris-maleate pH 6.4 are presented in Fig. S7. ^† Middle row: scanning electron micrographs of E. coli ATCC 25922 treated with 50 mM Tris-maleate pH 6.4 (control), 0.4 μM APMSF-inactivated trypsin (control), 3 μM proHD6, 3 μM trypsin-cleaved proHD6, or 3 μM HD6. Trypsin-cleaved proHD6 was prepared prior to incubation with the bacteria and the residual enzymatic activity was inhibited by APMSF (Experimental section). Following a 30 min incubation, the bacterial suspensions were centrifuged, fixed, and analyzed by SEM. Scale bar = 20 μm. Bottom row: SEM of L. monocytogenes ATCC19115 treated under the same conditions as in the middle row. Scale bar = 20 μm.
Bacteria were grown aerobically at 37 °C overnight in LB media. The next morning the strains were subcultured and grown to mid-logarithmic phase in LB media. […]

Test [2] deals with Salmonella enterica serovar Typhimurium. Description: SEM analysis of bacterial agglutination. The test is classed as cell-based. The note with it: 3 µM proHD6 treated with trypsin before incubation (trypsin inactivated with APMSF), 30 min, 50 mM Tris-maleate pH 6.4. How it is done: Bacteria were grown aerobically at 37 °C overnight in LB media. The next morning the strains were subcultured and grown to mid-logarithmic phase in LB media. An aliquot of the bacteria (0.5–2 × 10^7 CFU mL^–1) was removed, sedimented by centrifugation (7000g × 2 min, 4 °C), washed twice with 50 mM Tris-maleate buffer, pH 6.4, and then resuspended in 0.5 mL of the 50 mM Tris-maleate buffer. The bacterial suspension was incubated at room temperature for 30 min with buffer control, 0.4 μM APMSF-inactivated trypsin, 3 μM proHD6, 3 μM trypsin-cleaved proHD6, or 3 μM HD6. Trypsin-cleaved proHD6 was prepared by incubating 30 μM proHD6 with 4 μM trypsin (Affimetrix, Santa Clara, CA) for 1 h at room temperature in 50 mM Tris-maleate buffer, pH 6.4. At the end of incubation, the trypsin was inactivated by addition of APMSF (p-amidinophenylmethylsulfonylfluoride HCl, Millipore, 25 μg mL^–1), and the mixture was added to the bacterial suspension. The APMSF-inactivated trypsin was similarly prepared, except that proHD6 was omitted from the preincubation. After a 30 min incubation, the treated bacterial suspensions were sedimented by centrifugation (7000g × 5 min, 4 °C), and the buffer supernatant was carefully removed. […]

Test [3] relates to Escherichia coli ATCC 25922. The experiment in a line: Antimicrobial activity assay (CFU counting). It is filed as cell-based. The note with it: 50 µM peptide, 1 h, 37 °C, 10 mM sodium phosphate buffer containing 1% v/v TSB, n = 3. The protocol:
(§1) The assays were performed according to a literature procedure.[15] Briefly, a 90 μL aliquot of the diluted bacterial culture was added to each well and then to each well was added 10 μL of a 10× concentrated aqueous peptide solution (500 μM) or sterile Milli-Q water as a no-peptide control. The plate was incubated for 1 h (37 °C, 150 rpm). The serial dilution for CFU counting was conducted as previously reported.[15] These assays were performed with at least two independently prepared and purified samples of each peptide and in three independent trials. The resulting averages and standard deviations are reported. […]
(§2) a bE. coliL. monocytogenes
(§3) Concentration (µM) Concentration (µM)
(§4) Figure S4. Antibacterial activity assays against E. coli ATCC 25922 and L. monocytogenes ATCC 19115. The bacteria were treated with 50 µM of each peptide for 1 h at 37 ° C in 10 mM sodium phosphate buffer containing 1% v/v TSB (mean ± SDM, n = 3). An asterisk indicates no […]
(§5) Retention Time (min) Retention Time (min)
(§6) Figure S5. In vitro trypsin-catalyzed proteolysis of proHD6. Analytical HPLC traces of trypsin-treated (a) proHD6 or (b) mature HD6 (30 µM x 80 µL) at indicated time points. Absorbance at 220 nm was monitored with a reference wavelength of 500 nm. Method: 10–60% B over 30 min

Test [4] concerns Listeria monocytogenes ATCC 19115. The experiment in a line: Antimicrobial activity assay (CFU counting). The test is classed as cell-based. The note with it: 50 µM peptide, 1 h, 37 °C, 10 mM sodium phosphate buffer containing 1% v/v TSB, n = 3. The protocol: as §1, §2, §3, §4, §5, §6

As to “EPLQAEDDPLQAKAYEADAQEQRGANDQDFAVSFAEDASSSLRALGSTRAFTCHCRRSCYSTEYSYGTCTVMGINHRFCCL (disulfide (positions not given here)) [proHD6, 81-residue propeptide of human α-defensin 6, recombinant, from His6-SUMO-proHD6]”, the “bacterial agglutination (SEM), trypsin-cleaved” value is given as “same trypsin-dependent activity” in test [1] and “did not agglutinate S. Typhimurium unless it was treated with trypsin” in test [2]. The antibacterial activity entry in test [3] and in test [4] was “does not exhibit antibacterial activity” each time.

Source of the values: article PMC4827351 (Chemical Science, 2015).
